Data taken from patent publication US12570642B2, “GLP-IR modulating compounds” (Gilead Sciences, Inc., priority 2021, dated 2026).

Biological target: GLP-1R (Homo sapiens, UniProt P43220)
Test: GLP-1R Activation - cAMP Assay
Assay type: cell-based
Details: each compound run on one of the two cAMP assays (Assay 1 or Assay 2, not specified)
Method in brief: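 cAMP rise read by HTRF after 30 min agonist exposure (10-point titration, 37 °C) in HBSS/20 mM Hepes/0.1% BSA, following 1 h pre-incubation. Cells: stable GLP-1R CHO line, 1,000/well, seeded overnight. Sigmoidal fit of response vs log concentration gives EC50.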

[1] = cAMP increase in CHO cells stably expressing GLP-1R

Sequence of GLP-1R (P43220 24-463): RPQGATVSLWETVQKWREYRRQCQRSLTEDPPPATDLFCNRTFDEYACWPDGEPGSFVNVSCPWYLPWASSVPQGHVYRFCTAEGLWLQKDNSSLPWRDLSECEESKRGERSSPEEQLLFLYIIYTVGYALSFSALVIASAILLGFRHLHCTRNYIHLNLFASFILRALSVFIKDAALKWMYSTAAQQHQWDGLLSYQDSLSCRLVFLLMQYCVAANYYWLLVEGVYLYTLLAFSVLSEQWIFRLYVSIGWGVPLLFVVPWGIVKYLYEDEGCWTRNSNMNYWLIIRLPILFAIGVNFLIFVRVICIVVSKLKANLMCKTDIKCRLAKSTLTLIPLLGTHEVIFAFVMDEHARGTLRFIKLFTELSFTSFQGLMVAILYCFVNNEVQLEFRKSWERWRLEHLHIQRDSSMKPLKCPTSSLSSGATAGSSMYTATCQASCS

Compound	EC50 [1] [pM]	EC50 ([…]) [pM]
O=C(O)c1cc(F)c2nc(Cc3cc(F)c(-c4ncc(F)c(OCc5ccc(C(F)(F)F)cc5F)n4)cc3F)n(C[C@@H]3CCO3)c2c1 [Example 148, (S)-2-(2,5-difluoro-4-(5-fluoro-4-((2-fluoro-4-(trifluoromethyl)benzyl)oxy)pyrimidin-2-yl)benzyl)-4-fluoro-1-(oxetan-2-ylmethyl)-1H-benzo[d]imidazole-6-carboxylic Acid]	174	
O=C(O)c1cc(F)c2nc(Cc3cc(F)c(-c4nccc(OCc5ccc(C(F)(F)F)cc5F)n4)cc3F)n(C[C@@H]3CCO3)c2c1 [Example 149]	82	
CC(=O)N1[C@@H](Cn2c(Cc3cc(F)c(-c4cccc(OCc5ccc(C#N)cc5F)n4)cc3F)nc3ccc(C(=O)O)cc32)C[C@H]2C[C@H]21 [Example 150, 1-(((1R,3R,5R)-2-acetyl-2-azabicyclo[3.1.0]hexan-3-yl)methyl)-2-(4-(6-((4-cyano-2-fluorobenzyl)oxy)pyridin-2-yl)-2,5-difluorobenzyl)-1H-benzo[d]imidazole-6-carboxylic Acid]		63
CC1(C)COC[C@H]1n1c(Cc2c(F)cc(-c3nc(OCc4ccc(C#N)cc4)c(F)cc3F)cc2F)nc2ccc(C(=O)O)cc21 [Example 151, (S)-2-(4-(6-((4-cyanobenzyl)oxy)-3,5-difluoropyridin-2-yl)-2,6-difluorobenzyl)-1-(4,4-dimethyltetrahydrofuran-3-yl)-1H-benzo[d]imidazole-6-carboxylic Acid]	234	
CC1(C)COC[C@H]1n1c(Cc2ccc(-c3nc(OCc4ccc(C#N)cc4)c(F)cc3F)cc2F)nc2ccc(C(=O)O)cc21 [Example 152, (S)-2-(4-(6-((4-cyanobenzyl)oxy)-3,5-difluoropyridin-2-yl)-2-fluorobenzyl)-1-(4,4-dimethyltetrahydrofuran-3-yl)-1H-benzo[d]imidazole-6-carboxylic Acid]	115	
CC1(C)COC[C@H]1n1c(Cc2cc(F)c(-c3ccc(F)c(OCc4cnc(-n5ccnn5)cc4Cl)n3)cc2F)nc2c(F)cc(C(=O)O)cc21 [Example 153, (S)-2-(4-(6-((4-chloro-6-(1H-1,2,3-triazol-1-yl)pyridin-3-yl)methoxy)-5-fluoropyridin-2-yl)-2,5-difluorobenzyl)-1-(4,4-dimethyltetrahydrofuran-3-yl)-4-fluoro-1H-benzo[d]imidazole-6-carboxylic Acid]	11	
CC1(C)COC[C@H]1n1c(Cc2ccc(-c3ccc(F)c(OCc4cnc(-n5ccnn5)cc4Cl)n3)cc2F)nc2c(F)cc(C(=O)O)cc21 [Example 154, (S)-2-(4-(6-((4-chloro-6-(1H-1,2,3-triazol-1-yl)pyridin-3-yl)methoxy)-5-fluoropyridin-2-yl)-2-fluorobenzyl)-1-(4,4-dimethyltetrahydrofuran-3-yl)-4-fluoro-1H-benzo[d]imidazole-6-carboxylic Acid]	34	
COCCn1c(Cc2ccc(-c3ccc(F)c(OCc4cnc(-n5ccnn5)cc4Cl)n3)cc2F)nc2ccc(C(=O)O)cc21 [Example 155, 2-(4-(6-((4-chloro-6-(1H-1,2,3-triazol-1-yl)pyridin-3-yl)methoxy)-5-fluoropyridin-2-yl)-2-fluorobenzyl)-1-(2-methoxyethyl)-1H-benzo[d]imidazole-6-carboxylic Acid]	416	
Cc1cc(Cc2nc3ccc(C(=O)O)cc3n2[C@@H]2COCC2(C)C)c(Cl)cc1-c1cccc(OCc2cnc(-n3ccnn3)cc2Cl)n1 [Example 156, (S)-2-(2-chloro-4-(6-((4-chloro-6-(1H-1,2,3-triazol-1-yl)pyridin-3-yl)methoxy)pyridin-2-yl)-5-methylbenzyl)-1-(4,4-dimethyltetrahydrofuran-3-yl)-1H-benzo[d]imidazole-6-carboxylic Acid]	64	
CC1(C)COC[C@H]1n1c(Cc2c(F)cc(-c3cccc(OCc4cnc(-n5ccnn5)cc4Cl)n3)c(F)c2F)nc2ccc(C(=O)O)cc21 [Example 157, (S)-2-(4-(6-((4-chloro-6-(1H-1,2,3-triazol-1-yl)pyridin-3-yl)methoxy)pyridin-2-yl)-2,3,6-trifluorobenzyl)-1-(4,4-dimethyltetrahydrofuran-3-yl)-1H-benzo[d]imidazole-6-carboxylic Acid]	81	
CC1(C)COC[C@H]1n1c(Cc2ccc(-c3cccc(OCc4cnc(-n5ccnn5)cc4Cl)n3)cc2F)nc2ccc(C(=O)O)cc21 [Example 158, (S)-2-(4-(6-((4-chloro-6-(1H-1,2,3-triazol-1-yl)pyridin-3-yl)methoxy)pyridin-2-yl)-2-fluorobenzyl)-1-(4,4-dimethyltetrahydrofuran-3-yl)-1H-benzo[d]imidazole-6-carboxylic Acid]	32	
CC1(C)COC[C@H]1n1c(Cc2c(F)cc(-c3ccc(F)c(OCc4cnc(-n5ccnn5)cc4Cl)n3)c(F)c2F)nc2ccc(C(=O)O)cc21 [Example 159, (S)-2-(4-(6-((4-chloro-6-(1H-1,2,3-triazol-1-yl)pyridin-3-yl)methoxy)-5-fluoropyridin-2-yl)-2,3,6-trifluorobenzyl)-1-(4,4-dimethyltetrahydrofuran-3-yl)-1H-benzo[d]imidazole-6-carboxylic Acid]	43	
CC1(C)COC[C@H]1n1c(Cc2cc(F)c(-c3ccc(F)c(OCc4cnc(-n5ccnn5)cc4Cl)n3)cc2F)nc2ccc(C(=O)O)cc21 [Example 160, (S)-2-(4-(6-((4-chloro-6-(1H-1,2,3-triazol-1-yl)pyridin-3-yl)methoxy)-5-fluoropyridin-2-yl)-2,5-difluorobenzyl)-1-(4,4-dimethyltetrahydrofuran-3-yl)-1H-benzo[d]imidazole-6-carboxylic Acid]	35	
CC1(C)COC[C@H]1n1c(Cc2ccc(-c3ccc(F)c(OCc4cnc(-n5ccnn5)cc4Cl)n3)cc2F)nc2ccc(C(=O)O)cc21 [Example 161, (S)-2-(4-(6-((4-chloro-6-(1H-1,2,3-triazol-1-yl)pyridin-3-yl)methoxy)-5-fluoropyridin-2-yl)-2-fluorobenzyl)-1-(4,4-dimethyltetrahydrofuran-3-yl)-1H-benzo[d]imidazole-6-carboxylic Acid]	15	
CC1(C)COC[C@H]1n1c(Cc2cc(F)c(-c3cccc(OCc4ncc(-n5ccnn5)cc4Cl)n3)cc2F)nc2ccc(C(=O)O)cc21 [Example 162, (S)-2-(4-(6-((3-chloro-5-(1H-1,2,3-triazol-1-yl)pyridin-2-yl)methoxy)pyridin-2-yl)-2,5-difluorobenzyl)-1-(4,4-dimethyltetrahydrofuran-3-yl)-1H-benzo[d]imidazole-6-carboxylic Acid]	187	
CC1(C)COC[C@H]1n1c(Cc2cc(F)c(-c3ccc(F)c(OCc4ccc(-n5ccnn5)cc4F)n3)cc2F)nc2ccc(C(=O)O)cc21 [Example 163, (S)-2-(2,5-difluoro-4-(5-fluoro-6-((2-fluoro-4-(1H-1,2,3-triazol-1-yl)benzyl)oxy)pyridin-2-yl)benzyl)-1-(4,4-dimethyltetrahydrofuran-3-yl)-1H-benzo[d]imidazole-6-carboxylic Acid]	39	
Cc1cn(-c2ccc(COc3cccc(-c4cc(F)c(Cc5nc6ccc(C(=O)O)cc6n5[C@@H]5COCC5(C)C)cc4F)n3)c(F)c2)nn1 [Example 164, (S)-2-(2,5-difluoro-4-(6-((2-fluoro-4-(4-methyl-1H-1,2,3-triazol-1-yl)benzyl)oxy)pyridin-2-yl)benzyl)-1-(4,4-dimethyltetrahydrofuran-3-yl)-1H-benzo[d]imidazole-6-carboxylic Acid]	85	
CC1(C)COCC1n1c(Cc2cc(F)c(-c3cccc(OCc4ccc(C#N)cc4F)n3)cc2F)nc2ccc(C(=O)O)c(F)c21 (centres unmarked) [Example 165, 2-(4-(6-((4-cyano-2-fluorobenzyl)oxy)pyridin-2-yl)-2,5-difluorobenzyl)-1-(4,4-dimethyltetrahydrofuran-3-yl)-7-fluoro-1H-benzo[d]imidazole-6-carboxylic Acid]	553	
CC1(C)COCC1n1c(Cc2cc(F)c(-c3cccc(OCc4ccc(C#N)cc4F)n3)cc2F)nc2ccc(C(=O)O)c(F)c21 (centres unmarked) [Example 166, 2-(4-(6-((4-cyano-2-fluorobenzyl)oxy)pyridin-2-yl)-2,5-difluorobenzyl)-1-(4,4-dimethyltetrahydrofuran-3-yl)-7-fluoro-1H-benzo[d]imidazole-6-carboxylic Acid]	222	
CC1(C)COC[C@H]1n1c(Cc2cc(F)c(-c3cccc(OCc4ccc(-n5ccnn5)cc4F)n3)cc2F)nc2ccc(C(=O)O)cc21 [Example 167, (S)-2-(2,5-difluoro-4-(6-((2-fluoro-4-(1H-1,2,3-triazol-1-yl)benzyl)oxy)pyridin-2-yl)benzyl)-1-(4,4-dimethyltetrahydrofuran-3-yl)-1H-benzo[d]imidazole-6-carboxylic Acid]	27	
CC1(C)COC[C@H]1n1c(Cc2cc(F)c(-c3cccc(OCc4ccc(C(F)(F)F)cc4F)n3)cc2F)nc2ccc(C(=O)O)cc21 [Example 168, (S)-2-(2,5-difluoro-4-(6-((2-fluoro-4-(trifluoromethyl)benzyl)oxy)pyridin-2-yl)benzyl)-1-(4,4-dimethyltetrahydrofuran-3-yl)-1H-benzo[d]imidazole-6-carboxylic Acid]	388	
CC1(C)COC[C@H]1n1c(Cc2cc(F)c(-c3cccc(OCc4ccc(C(F)(F)F)cc4F)n3)cc2F)nc2c(F)cc(C(=O)O)cc21 [Example 169, (S)-2-(2,5-difluoro-4-(6-((2-fluoro-4-(trifluoromethyl)benzyl)oxy)pyridin-2-yl)benzyl)-1-(4,4-dimethyltetrahydrofuran-3-yl)-4-fluoro-1H-benzo[d]imidazole-6-carboxylic Acid]	171	
COc1nc(Cl)ccc1COc1cccc(-c2cc(F)c(Cc3nc4c(F)cc(C(=O)O)cc4n3C3COCC3(C)C)cc2F)n1 (centres unmarked) [Example 170, 2-(4-(6-((6-chloro-2-methoxypyridin-3-yl)methoxy)pyridin-2-yl)-2,5-difluorobenzyl)-1-(4,4-dimethyltetrahydrofuran-3-yl)-4-fluoro-1H-benzo[d]imidazole-6-carboxylic Acid]	227	
